Reference: publication PMC6934184, “Selective DNA-PKcs inhibition extends the therapeutic index of localized radiotherapy and chemotherapy” (The Journal of Clinical Investigation, 2019)

Target: T1, CLK3 (Homo sapiens, UniProt P49761)
T1 construct: purchased Thermo Fisher Scientific (Life Technologies) SelectScreen
Assay: SelectScreen Z'LYTE
Format: biochemical
In short: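 Compound tested in SelectScreen activity assays, Z'LYTE for CSF1R, CDK1/cyclin B and MAP2K6 and Adapta for CAMK1. ATP for CAMK1 was listed as 10, and Km app was used for CSF1R. Results are expressed in percent.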

T1 sequence (P49761 whole entry): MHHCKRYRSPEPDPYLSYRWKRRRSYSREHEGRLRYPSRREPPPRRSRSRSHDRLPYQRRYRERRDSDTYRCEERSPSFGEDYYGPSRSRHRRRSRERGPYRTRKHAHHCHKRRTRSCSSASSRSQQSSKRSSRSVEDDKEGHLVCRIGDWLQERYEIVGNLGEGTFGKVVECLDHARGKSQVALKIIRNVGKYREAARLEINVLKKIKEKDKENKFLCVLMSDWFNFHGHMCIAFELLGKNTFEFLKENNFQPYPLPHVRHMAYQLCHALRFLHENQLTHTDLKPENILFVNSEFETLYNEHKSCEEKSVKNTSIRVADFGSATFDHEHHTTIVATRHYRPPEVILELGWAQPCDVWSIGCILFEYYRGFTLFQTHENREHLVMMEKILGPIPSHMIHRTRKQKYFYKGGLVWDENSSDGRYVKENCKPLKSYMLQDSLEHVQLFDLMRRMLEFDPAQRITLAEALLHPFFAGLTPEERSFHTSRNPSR

Compound `CN(C(=O)CN1CCOCC1)c1ccc2sc3c(-c4cccc5c(=O)cc(N6CC7CCC(C6)O7)oc45)cccc3c2c1` [NU5455] has an inhibition at 1 µM of -0.5%.
